Assay results: patent US9346834B2, “Boron-containing small molecules as antiprotozoal agents” (Anacor Pharmaceuticals, Inc., priority 2009, dated 2016)

Tested on: Leishmania infantum MHOM/MA(BE)/67
Experiment: Leishmania infantum macrophage screening assay, primary screen
Format: cell-based
Conditions: 120 h, amastigotes in primary peritoneal mouse macrophages, 5 days incubation, % reduction in parasite burden, reference drugs, read-out: IC50 (50% inhibitory concentration)
Method: Parasite and Cell Cultures. Two Leishmania species (L. infantum MHOM/MA(BE)/67 and L. donovani MHOM/ET/67/L82) were used. The strains were maintained in the Golden Hamster (Mesocricetus auratus). Amastigotes were collected from the spleen of an infected donor hamster using three centrifugation purification steps (300 rpm, keeping the supernatant, 2200 rpm, keeping the supernatants and 3500 rpm, keeping the pellet) and spleen parasite burdens were assessed using the Stauber technique (Stauber L A., Exp Parasitol. 18: 1-11 (1966)). Primary peritoneal mouse macrophages were used as host cell and were collected 2 days after peritoneal stimulation with a 2% potato starch suspension. All cultures and assays were conducted at 37° C. under an atmosphere of 5% CO2.
Compound Solutions/Dilutions. Compound stock solutions were prepared in 100% DMSO at 20 mM or mg/ml. Concentrations were standard and expressed in molar concentrations, except for natural products, drug mixtures and if the molecular weight was not known. […]
Drug Sensitivity Assays. […] After 5 days incubation, parasite burdens (mean number of amastigotes/macrophage) were microscopically assessed after staining the cells with a 10% Giemsa solution. The results were expressed as % reduction in parasite burden compared to untreated control wells and an IC50 (50% inhibitory concentration) was calculated. […]

Structure (SMILES): CCCCCCCCCCCCCCCCOP(=O)([O-])OCC[N+](C)(C)C [miltefosin]
- IC50: 4.3 µM
